The source of these data is patent US6124352A (priority 1994, dated 2000).

For data set [1], the system named is Candida albicans. The data set can be described thus: Relative in vitro efficacy (growth inhibition of Candida albicans on agar replicate plates). The format is cell-based. To be noted: 100-150 cells of Candida albicans plated on replicate agar plates containing 15 μg of compound. How it is done:
These relative efficacy numbers were obtained by plating 100-150 cells of Candida albicans on replicate agar plates containing 15 μg of the named compound and by determining the relative growth inhibition of each compound.

For data set [2], the system named is nine fungal strains (Candida spp., Cryptococcus neoformans, Aspergillus fumigatus). The data set is described as follows: Minimum inhibitory concentration, first independent laboratory (broth). The format is cell-based. Particulars: HR/Mops broth and Sabouraud dextrose broth. The method, then: Additional in vitro evaluation of the antifungal activity of the compounds was performed by two independent testing laboratories. One laboratory found the minimum inhibitory concentration (μg/ml), in fungal strains, of 3,5-dichloro-2,6-dinitrobenzoic acid to range from 1.56 to 6.3 when nine fungal strains (Candida spp., Cryptococcus neoformans, Aspergillus fumigatus) were tested in HR/Mops broth and Sabouraud dextrose broth.

Data set [3] concerns wide range of fungi. The data set can be described thus: Minimum inhibitory concentration, second independent laboratory (standard agar dilution method), fungi. In kind it is cell-based. Particulars: Isosensitest agar. The method, then:
(§1) The second laboratory compared the minimum inhibitory concentrations (μg/ml) of 3,5-dichloro-2,6-dinitrobenzoic acid and Amphotericin B, an antifungal agent. The strains were plated, in the standard agar dilution method, on Isosensitest agar containing a single antifungal agent. […] As such, when Amphotericin B is tested in agar, its activity appears higher than it would in vivo.
(In agar dilution the substance is mixed into plates at graded concentrations.)

The test system of data set [4] is bacteria. The data set can be described thus: Activity against bacteria, second independent laboratory (standard agar dilution method). The format is cell-based. Particulars: Isosensitest agar. The method, then: as §1
Data set [5] concerns C. albicans C316. The data set is described as follows: Stability and activity against C. albicans C316 in various broth media. To be noted: even in the presence of 50% mouse serum. The format is cell-based. The method, then:
(§2) In comparison, the IC50 of pentamidine, the agent now widely used to counter P. carinii fungus infections, was 2 μg/ml.

For data set [6], the system named is Pneumocystis carinii. The data set is described as follows: Pneumocystis carinii short term culture, viability by incorporation of [3H] para-aminobenzoic acid. In kind it is cell-based. Particulars: fungus removed from rat lungs, read-out: IC50 against Pneumocystis carinii. The method, then:
as §2

Data set [7] can be described thus: Water solubility. In kind it is physicochemical. Particulars: in words.
Data set [8] has as its system Candida albicans. The data set can be described thus: In Vitro fungicidal test (number of colonies/plate). Particulars: for Number of Colonies/Plate, Plate No. 1 / Number of Colonies/Plate, Plate No. 2 / Number of Colonies/Plate, Plate No. 3 / Number of Colonies/Plate, Plate No. 4 / Number of Colonies/Plate, Plate No. 5 / Number of Colonies/Plate, Plate No. 6 / Number of Colonies/Plate, Plate No. 7 / Number of Colonies/Plate, Plate No. 8 / Number of Colonies/Plate, Plate No. 9: drug final concentration 0.1 mg/ml, 80 min at 30° C., plates 48 hours; for Number of Colonies/Plate, Plate No. 1: plate 1; for Number of Colonies/Plate, Plate No. 2: plate 2; for Number of Colonies/Plate, Plate No. 3: plate 3; for Number of Colonies/Plate, Plate No. 4: plate 4; for Number of Colonies/Plate, Plate No. 5: plate 5; for Number of Colonies/Plate, Plate No. 6: plate 6; for Number of Colonies/Plate, Plate No. 7: plate 7; for Number of Colonies/Plate, Plate No. 8: plate 8; for Number of Colonies/Plate, Plate No. 9: plate 9.
Method: The 10% wlw malt extract, 2% agar solution used for plating in this test was prepared by mixing 100 g malt extract, 20 g agar, and a pellet of sodium hydroxide (about 0.1 g) in 1 liter of distilled, deionized water (DDW). This solution was sterilized by autoclaving, and then poured into plates.
The yeast-malt (YM) broth was composed of 3 g yeast extract, 3 g malt extract, 5 g peptone, and 10 g glucose in 1 liter DDW. The solution was brought to pH 7.2 with inorganics (e.g., hydrochloric acid or sodium hydroxide), then sterilized by autoclaving.
Stock solutions of the drugs to be tested were made in a mixture of dimethylformamide (DMF) and 0.05 M phosphate buffer at pH 7.2, combined in a 4:6 ratio of DME to buffer. Test solutions of 1 mg/ml solutions were prepared.
Two control solutions were prepared. One was the phosphate buffer as described above, the other was a mixture of DMF and the buffer in a 4:6 ratio as described above.
All drug and control solutions were sterilized by filtration through a 0.2 g filter.

Data set [9] deals with Candida albicans. The data set is described as follows: Serial Dilution Assay, Candida albicans. The format is cell-based. To be noted: 24 hours at 30°, OD 600 nm. The method, then:
(§3) Serial dilution assays of 3,5-dibromo-2,6-dinitrobenzoic acid and nystatin were performed on Candida albicans, Trichophyton or Asperigillus. 9 ml (1×10^4 cells) of each diluted yeast suspension was added to 1 ml of various serial dilutions of the drug to be tested in 15 ml centrifuge tubes. The final drug concentrations ranged from 0.1 to 0.0001 mg/ml. Two control tubes were also prepared using DDW instead of a drug solution. The tubes were capped and incubated for 24 hours at 30° with shaking at 200 rpm. The fungal growth was assessed by measuring optical density at 600 nm using a nephelometer.

Data set [10] deals with Trichophyton. The data set can be described thus: Serial Dilution Assay, Trichophyton. Particulars: 24 hours at 30°, OD 600 nm. The format is cell-based. How it is done:
as §3

In data set [11] the test system is Asperigillus. The data set can be described thus: Serial Dilution Assay, Aspergillus. In kind it is cell-based. How it is done: as §3
For data set [12], the system named is mice. To be noted: mouse, in vivo; cited from earlier work.
Data set [13] concerns mice. The data set is described as follows: Acute intravenous toxicity (LD50). The format is in vivo. Particulars: one intravenous dose, observed for 14 days. The method, then:
(§4) The acute intravenous toxicity of 3,5-dibromo-2,6-dinitrobenzoic acid in mice is assessed by determining the mean lethal dose (LD50) using a well-known method. Mice are fed a standard laboratory diet for 8-10 weeks. Five animals of each sex are administered one intravenous dose of 3,5-dibromo-[…] acid. The animals are observed for 14 days, and the number of deaths noted.

Data set [14] can be described thus: Acute intravenous toxicity (LD50). Particulars: mouse, in vivo; mice, one intravenous dose, observed for 14 days. In kind it is in vivo. How it is done:
as §4

Where [15] appears, read: read-out: final concentration at which fungal growth was completely inhibited.

≈ marks a conversion by molar mass, not a printed value.

The IC50 is the point on the concentration scale where inhibition reaches its midpoint. One may read the LD50 as the dose at which mortality reaches 50%. A lower LD50 goes with greater toxicity.

On to `COC(=O)c1c([N+](=O)[O-])c(Br)cc(Br)c1[N+](=O)[O-]` [Example 4, methyl 3,5-dibromo-2,6-dinitrobenzoate], for which, in [1], the “Relative In Vitro Efficacy” value is 4.
Still for that read-out and setting: the result for `O=C(O)c1cc([N+](=O)[O-])c(Cl)c([N+](=O)[O-])c1Cl` [2,4-dicholoro-3,5-dinitro benzoic acid] reads 10.
`O=C(O)c1c([N+](=O)[O-])c(Cl)cc(Cl)c1[N+](=O)[O-]` [Example 2, 3,5-dichloro-2,6-dinitrobenzoic acid]: the “Relative In Vitro Efficacy” value in data set [1] amounted to 100. In data set [2], this compound yielded an MIC of 1.56 to 6.3 µg/mL (≈ 5.55 to 22.4 µM). Further, the “fungal inhibition compared with Amphotericin B” value in data set [3] (agar-plate conditions optimized for Amphotericin B) is “less fungal inhibition than Amphotericin B”. This compound also came in with an MIC in [3] (wide range of fungi) of 4 to 31 µg/mL (≈ 14.2 to 110 µM). The activity against bacteria entry in data set [4] is “not against bacteria”. Further, the “stability and activity against C. albicans C316” value in data set [5] is “remained stable and active”. Further, the IC50 in [6] was determined as 17 µg/mL (≈ 60.5 µM). Also, the water solubility result in data set [7] is “water soluble”. Besides, in [8], the “Number of Colonies/Plate, Plate No. 1” value came out at 22; the “Number of Colonies/Plate, Plate No. 2” value turned out to be 4; the “Number of Colonies/Plate, Plate No. 3” value is 3; the “Number of Colonies/Plate, Plate No. 4” value was found to be 31. In [8], the “Number of Colonies/Plate, Plate No. 5” value is given as 28; the “Number of Colonies/Plate, Plate No. 6” value is given as 33; the “Number of Colonies/Plate, Plate No. 7” value was 20; the “Number of Colonies/Plate, Plate No. 8” value stood at 19. Besides, in data set [8], the “Number of Colonies/Plate, Plate No. 9” value came out at 25. For the same compound, in [8] (from Table 2), the “fungicidal activity relative to amphotericin B” value is listed as “about twice as effective as amphotericin B” and the “fungicidal activity relative to ketoconazole” value is listed as “about four times as effective as ketoconazole”.
Regarding `N=C(N)c1ccc(OCCCCCOc2ccc(C(=N)N)cc2)cc1` [pentamidine, reference compound], the IC50 in data set [6] came to 2 µg/mL (≈ 5.87 µM).
For `C[C@@H]1[C@H](O)[C@@H](C)/C=C/C=C/CC/C=C/C=C/C=C/C=C/C(O[C@H]2O[C@H](C)[C@@H](O)[C@H](N)[C@@H]2O)CC2O[C@](O)(CC(O)C(O)CCC(O)CC(O)CC(O)CC(=O)O[C@H]1C)CC(O)C2C(=O)O` (some centres unmarked) [nystatin, reference compound], the “final concentration at which fungal growth was completely inhibited” value stood at 1.5 µg/mL in data set [9]; 1.5 µg/mL in [10]; 1.5 µg/mL in data set [11] (Asperigillus, 24 hours at 30°, OD 600 nm). In data set [12], the “toxicity compared with the compound of the invention tested” value was “significantly higher toxicity than the compound of the invention tested”.
In data set [13], 2,4-dibromo-3,5-dinitrobenzoic acid registered an LD50 of 240 mg/kg.
Consider `CC(=O)N1CCN(c2ccc(OCC3COC(Cn4ccnc4)(c4ccc(Cl)cc4Cl)O3)cc2)CC1` (centres unmarked) [Ketoconazole, ketoconazole], for which, in data set [8], the “Number of Colonies/Plate, Plate No. 1” value amounted to 82; the “Number of Colonies/Plate, Plate No. 2” value is 39; the “Number of Colonies/Plate, Plate No. 3” value is given as 37; the “Number of Colonies/Plate, Plate No. 4” value is reported as 94. Also, in data set [8], the “Number of Colonies/Plate, Plate No. 5” value is 103; the “Number of Colonies/Plate, Plate No. 6” value is recorded as 78; the “Number of Colonies/Plate, Plate No. 7” value is given as 120; the “Number of Colonies/Plate, Plate No. 8” value was 122. In addition, in data set [8], the “Number of Colonies/Plate, Plate No. 9” value amounted to 95.
On to `O=C(O)c1c([N+](=O)[O-])c(Br)cc(Br)c1[N+](=O)[O-]` [Example 1, 3,5-dibromo-2,6-dinitrobenzoic acid], for which the “Relative In Vitro Efficacy” value in [1] was determined as 100. In addition, the MIC in data set [9] (setting [15]) was determined as 1.5 µg/mL (≈ 4.06 µM); in data set [10] (setting [15]), 1.5 µg/mL (≈ 4.06 µM); in [11] (24 h, read-out: final concentration at which fungal growth was completely inhibited), 1.5 µg/mL (≈ 4.06 µM). The same compound gave an LD50 at 336 h in data set [14] of around 240 mg/kg.
`C[C@@H]1[C@H](O)[C@@H](C)/C=C/C=C/C=C/C=C/C=C/C=C/C=C/[C@H](O[C@@H]2O[C@H](C)[C@@H](O)[C@H](N)[C@@H]2O)C[C@@H]2O[C@](O)(C[C@@H](O)C[C@@H](O)[C@H](O)CC[C@@H](O)C[C@@H](O)CC(=O)O[C@H]1C)C[C@H](O)[C@H]2C(=O)O` [Amphotericin B, amphotericin B]: in data set [8], the “Number of Colonies/Plate, Plate No. 1” value came to 50; the “Number of Colonies/Plate, Plate No. 2” value is reported as 15; the “Number of Colonies/Plate, Plate No. 3” value was found to be 9; the “Number of Colonies/Plate, Plate No. 4” value amounted to 56. Further, in [8], the “Number of Colonies/Plate, Plate No. 5” value was 51; the “Number of Colonies/Plate, Plate No. 6” value was 48; the “Number of Colonies/Plate, Plate No. 7” value is on record as 55; the “Number of Colonies/Plate, Plate No. 8” value worked out at 65. Also, in data set [8], the “Number of Colonies/Plate, Plate No. 9” value is on record as 64.
